The values that follow come from PMC8247900 (Clinical Pharmacology and Therapeutics, 2021).

Each structure is given as a SMILES string.

Data set [1] is classed as in vivo, human.
The test system of data set [2] is CYP3A4 mRNA.
The subject of data set [3] is CYP1A2 mRNA. The data set is described as follows: Induction of CYP mRNA expression in HepaRG cells. The format is cell-based, human. The settings on record: 72 hours.
Data set [4] deals with CYP2C19 mRNA. As to the kind of experiment: Induction of CYP mRNA expression in HepaRG cells. Format: cell-based, human. The settings on record: 72 hours, 300 µM 4‐MAA, 10 µM rifampicin; for CYP2C19 mRNA induction in 5‐F cells: 5‐F control HepaRG cells, 1 µM CITCO.
Data set [5] concerns CYP2C9 mRNA. The data set is described as follows: Induction of CYP mRNA expression in HepaRG cells. The format is cell-based, human. As to conditions: 5‐F control HepaRG cells, 72 hours; 300 µM 4‐MAA, 1 µM CITCO, 10 µM rifampicin.
In data set [6] the test system is CYP2B6 mRNA. The data set is described as follows: Induction of CYP mRNA expression in HepaRG cells. As to conditions: 72 hours, 300 µM 4‐MAA, 10 µM rifampicin; for CYP2B6 mRNA induction in 5‐F cells: 5‐F control HepaRG cells, 1 µM CITCO. Format: cell-based, human.
Data set [7] has as its system CYP1A2. Format: in vivo, human. As to conditions: male, human, plasma, oral.
Data set [8] concerns CYP2C9. As to the kind of experiment: Clinical phenotyping cocktail study: effect of metamizole on CYP2C9. The format is in vivo, human. As to conditions: 3 g of metamizole per day for 1 week.
The subject of data set [9] is CYP2C19. The data set is described as follows: Clinical phenotyping cocktail study: effect of metamizole on CYP2C19. The format is in vivo, human. The settings on record: 3 g of metamizole per day for 1 week.
The conditions of data set [10]: patients after organ transplantation; cited from earlier work.
Data set [11] has as its system CYP2B6. The settings on record: healthy volunteers, 1.5 g metamizole per day for 4 days; cited from earlier work.
For data set [12], the target named is T1, CYP1A2 (Homo sapiens, UniProt P05177).
T1 sequence (P05177 1-516): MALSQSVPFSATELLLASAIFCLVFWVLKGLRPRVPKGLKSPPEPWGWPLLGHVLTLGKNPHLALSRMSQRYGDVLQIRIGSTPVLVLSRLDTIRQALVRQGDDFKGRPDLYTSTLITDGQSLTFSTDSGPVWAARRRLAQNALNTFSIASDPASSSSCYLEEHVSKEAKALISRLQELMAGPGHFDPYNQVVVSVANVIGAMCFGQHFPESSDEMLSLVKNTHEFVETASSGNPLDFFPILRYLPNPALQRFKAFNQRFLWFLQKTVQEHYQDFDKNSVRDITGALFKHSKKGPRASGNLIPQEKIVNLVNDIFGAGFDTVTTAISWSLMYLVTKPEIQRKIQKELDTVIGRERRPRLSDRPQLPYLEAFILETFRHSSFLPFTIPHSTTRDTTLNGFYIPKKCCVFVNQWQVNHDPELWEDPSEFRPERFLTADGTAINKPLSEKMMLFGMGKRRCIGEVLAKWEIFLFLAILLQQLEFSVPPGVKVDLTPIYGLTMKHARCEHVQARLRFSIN
The data set is described as follows: Clinical phenotyping cocktail study: effect of metamizole on CYP1A2. The format is in vivo.

The test system of data set [13] is CYP2B6. The data set is described as follows: Clinical phenotyping cocktail study: effect of metamizole on CYP2B6. The format is in vivo, human. As to conditions: 3 g of metamizole per day for 1 week.
For data set [14] the following is noted: retrospective study, patients treated with metamizole; cited from earlier work.
Data set [15] deals with CYP3A4. As to the kind of experiment: Clinical phenotyping cocktail study: effect of metamizole on CYP3A4. As to conditions: 3 g of metamizole per day for 1 week. The format is in vivo, human.
Data set [16] deals with CYP2D6. The data set is described as follows: Clinical phenotyping cocktail study: effect of metamizole on CYP2D6. Format: in vivo, human.
Data set [17] concerns CYP2D6 mRNA. As to the kind of experiment: Induction of CYP mRNA expression in HepaRG cells. Format: cell-based, human. The settings on record: differentiated HepaRG cells, 72 hours; 300 µM 4‐MAA; 2 mM metformin.
Where [18] appears, read: clinical study, 3 g of metamizole per day for 1 week.
[19] abbreviates: differentiated HepaRG cells, vs DMSO control.

Usually AUC(0-inf) stands for total exposure, with the tail of the curve extrapolated. Low values mean low exposure, high ones high exposure. For `CC(C(=O)O)c1ccc(-c2ccc(O)cc2)c(F)c1` (centres unmarked) [4′‐hydroxyflurbiprofen], the AUC(0-inf) in data set [1] (male, human, plasma, oral) came out at 726 ng·h/mL.
As for `Clc1ccc(-c2nc3sccn3c2C=NOCc2ccc(Cl)c(Cl)c2)cc1` [CITCO, 6‐(4‐chlorophenyl)imidazo[2,1‐b][1,3]thiazole‐5‐carbaldehyde O‐(3,4‐dichlorobenzyl)oxime], in data set [2], the “CYP3A4 mRNA induction in 5‐F cells” value is reported as “not significant”. In addition, in data set [3] (5‐F control HepaRG cells, 1 µM CITCO), the “CYP1A2 mRNA induction in 5‐F cells” value is “induced”. Also, the “CYP1A2 mRNA induction in HepaRG cells lacking CAR” value in [3] (CAR‐knockout HepaRG cells, 1 µM CITCO) was “still induced”. Further, in data set [4], the “CYP2C19 mRNA induction in 5‐F cells” value is recorded as “induced”. Further, in data set [5], the “CYP2C9 mRNA induction in 5‐F cells” value is listed as “not significant”. The “CYP2B6 mRNA induction in 5‐F cells” value in data set [6] is “induced”.
The compound `Cn1c(=O)c2c(ncn2C)n(C)c1=O` [Caffeine, caffeine] came in with an AUC(0-inf) in data set [1] (male, human, plasma, oral) of 7210 ng·h/mL.
For the compound `O=C1Nc2ccc(Cl)cc2[C@@](C#CC2CC2)(C(F)(F)F)O1` [Efavirenz, efavirenz], the “Basal metabolic ratio in CYP2B6 NM” value in data set [1] (basal state, CYP2B6 *1/*1 carriers (normal metabolizers, four subjects)) is recorded as 96.3. The “Basal metabolic ratio in CYP2B6 IM” value in [1] (basal state, CYP2B6 *1/*6 carriers (intermediate metabolizers, eight subjects)) was 87.5. In addition, the AUC(0-inf) in [1] (male, human, plasma, oral) amounted to 3980 ng·h/mL.
On to `CC(C(=O)O)c1ccc(-c2ccccc2)c(F)c1` (centres unmarked) [Flurbiprofen, flurbiprofen], for which the AUC(0-inf) in data set [1] (male, human, plasma, oral) is 10000 ng·h/mL.
Same read-out and setting: the same measure for `COCCc1ccc(OCC(O)CNC(C)C)cc1` (centres unmarked) [Metoprolol, metoprolol]: 41.4 ng·h/mL.
For orientation: half-life means the time in which the quantity being followed falls by half. In [1] (male, human, plasma, oral), `Cc1ncc2n1-c1ccc(Cl)cc1C(c1ccccc1F)=NC2` [Midazolam, midazolam] had an AUC(0-inf) of 19.7 ng·h/mL and a half-life of 2.44 h.
Turning to `COc1ccc2[nH]c([S+]([O-])Cc3ncc(C)c(OC)c3C)nc2c1` (centres unmarked) [Omeprazole, omeprazole], the AUC(0-inf) in data set [1] (male, human, plasma, oral) amounted to 187 ng·h/mL.
As to `Cn1c(=O)[nH]c2ncn(C)c2c1=O` [Paraxanthine, paraxanthine], the AUC(0-inf) turned out to be 4680 ng·h/mL in data set [1] (male, human, plasma, oral) and 4620 ng·h/mL in data set [7].
`Cc1c(N(C)CS(=O)(=O)O)c(=O)n(-c2ccccc2)n1C` [metamizole, Metamizole]: the “effect on CYP2C9 activity” value in data set [8] is listed as “weakly induced”. In addition, in data set [9], the “effect on CYP2C19 activity” value is “moderately”. For the same compound, the “effect on cyclosporine blood concentrations” value in data set [10] is on record as “decreased”. The “increase in the bupropion hydroxylase activity” value in data set [11] is 2.1 fold. In data set [12] (setting [18]), the “effect on CYP1A2 activity” value was “weakly inhibited”. In addition, the “change in caffeine:paraxanthine MR” value in [12] (metamizole 3 × 1 g per day for 7 days, P = 0.0024) is on record as “significant increase”. For the same compound, in [13], the “effect on CYP2B6 activity” value was “moderate induction”. In addition, in [14], the “lower sertraline plasma concentrations than patients without metamizole” value was 67%. The “effect on CYP3A4 activity” value in data set [15] is given as “moderate induction”. The “effect on CYP2D6 activity” value in data set [16] (setting [18]) is on record as “did not alter”. In [16] (metamizole 3 × 1 g per day for 7 days), the “change in the MR of metoprolol” value is “no significant change”.
Turning to `CN(C)C(=N)N=C(N)N` [metformin], the “effect on CYP2D6 mRNA” value in data set [17] is reported as “not significantly affected”. For the same compound, the “effect on CYP1A2 mRNA” value in [3] (differentiated HepaRG cells, 300 µM 4‐MAA, 2 mM metformin) is “suppressed”.
With `CO[C@H]1/C=C/O[C@@]2(C)Oc3c(C)c(O)c4c(O)c(c(/C=N/N5CCN(C)CC5)c(O)c4c3C2=O)NC(=O)/C(C)=C\C=C\[C@H](C)[C@H](O)[C@@H](C)[C@@H](O)[C@@H](C)[C@H](OC(C)=O)[C@@H]1C` [rifampicin], the “CYP2C19 mRNA induction in 5‐F cells” value in data set [4] is “increased”. Further, in data set [4] (setting [19]), the “increase of CYP2C19 mRNA content” value is given as 2.2 fold. The “CYP2B6 mRNA induction in 5‐F cells” value in data set [6] is “not significant”. In addition, the “increase of CYP2B6 mRNA content” value in data set [6] (setting [19]) is reported as 4.3 fold.
